What was measured:
[1] = in vitro; conditions: human, plasma
Description: Fraction unbound in human plasma

[2] = in vitro; conditions: cynomolgus monkey, plasma
Description: Fraction unbound in cynomolgus monkey plasma

[3] = in vitro; conditions: dog, MDCK, pH 7.4
Description: Apparent permeability in dog MDCKII-LE cells at pH 7.4

[4] = in vitro; conditions: rat, plasma
Description: Fraction unbound in rat plasma

[5] = cynomolgus monkey, in vivo, iv, 1 mg/kg
[6] = human, in vivo, iv
Description: Hepatic clearance in human administered through iv dosing

[7] = rat, in vivo, iv, 1 mg/kg
[8] = in vitro; conditions: human, cryopreserved hepatocytes
[9] = physchem
[10] = clinical; conditions: human, blood and plasma, iv
Description: Ratio of drug level in human blood to plasma administered through iv dosing by LC-MS/MS analysis

[11] = in vivo; conditions: cynomolgus monkey, blood and plasma, iv
Description: Ratio of drug level in cynomolgus monkey blood to plasma administered through iv dosing by LC-MS/MS analysis

[12] = physchem; remark: listed apart in the source
[13] = physchem; conditions: buffer, pH 7.4
[14] = in vivo; conditions: Wistar Hannover, rat, blood and plasma, iv
Description: Ratio of drug level in Wistar Hannover rat blood to plasma administered through iv dosing by LC-MS/MS analysis

SMILES | fraction unbound [1] | fraction unbound [2] | Papp [3] [×10⁻⁶ cm/s] | fraction unbound [4] | CLH [5] [mL/min/kg] | CLH [6] [mL/min/kg] | CLH [7] [mL/min/kg] | CLint scaled at 2 h, 1 µM [8] [mL/min/kg] | pKa at 0.3 h [9] | blood plasma ratio [10] | blood plasma ratio [11] | pKa at 0.3 h [12] | logD [13] | blood plasma ratio [14]
CCCCC(=O)N(Cc1ccc(-c2ccccc2-c2nnn[nH]2)cc1)[C@H](C(=O)O)C(C)C | 0.00415 | 0.0145 | 0.32 | 0.00302 | 8.4 | 0.35 | 5.1 | 1.6 |  |  |  |  |  | 
O=C(O)c1cccc(Cc2cc(Cl)ccc2OCc2ccc(Cl)cc2F)n1 | 0.0024 | 0.00288 | 12 |  | 19.5 | 2 |  | 180 | 5.3 | 0.654 | 0.561 |  |  | 
CCCCc1nc(C)c(CC(=S)N(C)C)c(=O)n1Cc1ccc(-c2ccccc2-c2nnn[nH]2)cc1 | 0.0288 | 0.0177 | 1.2 |  | 23 | 9.6 |  | 17 | 4.3 | 0.726 | 0.588 | 2.7 | 0.9 | 
CN(C)C(=O)CCS[C@H](SCCC(=O)O)c1cccc(/C=C/c2ccc3ccc(Cl)cc3n2)c1 | 0.00142 | 0.00116 | 8.5 |  | 10.1 | 0.91 |  | 61 | 4.4 | 0.655 | 0.581 | 3.8 | 1.5 | 
COCc1c(C(C)C)nc(C(C)C)c(/C=C/[C@@H](O)C[C@@H](O)CC(=O)O)c1-c1ccc(F)cc1 [CERIVASTATIN] | 0.0176 | 0.0153 |  | 0.0179 | 19.7 | 2.7 | 8.7 | 43 | 4.7 |  |  | 5.6 |  | 
CC(C)(C)OC(=O)N[C@H]1CCCCC/C=C\[C@@H]2C[C@@]2(C(=O)NS(=O)(=O)C2CC2)NC(=O)[C@@H]2C[C@@H](OC(=O)N3Cc4cccc(F)c4C3)CN2C1=O [DANOPREVIR] | 0.072 | 0.085 | 2.5 |  | 26.3 | 10.8 |  |  |  | 0.73 | 0.73 |  |  | 
CCCCCN(CCCOC)C(=O)[C@@H](CCC(=O)O)NC(=O)c1ccc(Cl)c(Cl)c1 [DEXLOXIGLUMIDE] | 0.00969 | 0.00771 | 4.6 |  | 1.4 | 3.3 |  | 26 | 4.2 | 0.563 | 0.596 |  | 1.5 | 
O=C(O)Cc1ccccc1Nc1c(Cl)cccc1Cl [DICLOFENAC] | 0.00376 | 0.0047 |  | 0.00598 | 10.8 | 4.1 | 17.5 | 176 |  |  |  |  |  | 
CC(C)(C)NC(=O)[C@H]1CC[C@H]2[C@@H]3CC=C4C=C(C(=O)O)CC[C@]4(C)[C@H]3CC[C@]12C [EPRISTERIDE] | 0.0138 | 0.00917 | 20 |  | 1.5 | 0.33 |  | 23 | 4.6 | 0.55 | 0.55 |  | 3.4 | 
CC(C)n1c(/C=C/C(O)CC(O)CC(=O)O)c(-c2ccc(F)cc2)c2ccccc21 (centres undefined) [FLUVASTATIN] | 0.00922 |  | 11 | 0.009 |  |  |  |  | 4.4 |  |  |  | 1.4 | 
COc1ccc2c(c1)C(=O)N(CCc1ccc(S(=O)(=O)NC(=O)NC3CCCCC3)cc1)C(=O)C2(C)C [GLIQUIDONE] | 0.0035 | 0.0015 | 5.7 |  | 3.5 | 0.96 |  |  |  | 0.62 | 0.62 |  |  | 
COc1ccc(Cl)cc1C(=O)NCCc1ccc(S(=O)(=O)NC(=O)NC2CCCCC2)cc1 [GLYBURIDE] | 0.00217 | 0.00179 | 14 | 0.0013 | 5.8 | 1.2 | 1.2 | 69 |  |  |  |  |  | 
CC(C)Cc1ccc(C(C)C(=O)O)cc1 (centres undefined) [IBUPROFEN] |  |  | 33 |  |  |  |  |  |  |  |  |  | 1.1 | 
CCCCC1=NC2(CCCC2)C(=O)N1Cc1ccc(-c2ccccc2-c2nnn[nH]2)cc1 [IRBESARTAN] | 0.0155 | 0.0126 | 8.6 |  | 12.1 | 2.1 |  |  | 3.5 | 0.603 | 0.55 | 4.6 | 1.3 | 
O=C(c1ccccc1)c1ccc2n1CCC2C(=O)O (centres undefined) [KETOROLAC] | 0.0264 | 0.0148 | 15 | 0.0216 | 1.2 | 0.19 | 1.3 | 3.1 |  | 0.792 | 0.687 |  | -0.6 | 0.55
CC(C)(O)c1ccccc1CC[C@@H](SCC1(CC(=O)O)CC1)c1cccc(/C=C/c2ccc3ccc(Cl)cc3n2)c1 [MONTELUKAST] | 0.004 | 0.004 | 6 |  | 1.3 | 0.57 |  |  |  |  |  | 2.3 |  | 
O=C(O)c1ccc(NC(=O)[C@H](CC2CCCC2)n2cnc(C(F)(F)F)c2)nc1 [PF-04991532] |  |  |  |  |  |  |  |  |  |  |  |  | 0.7 | 
Nc1[nH]ncc1-c1cc(Cl)ccc1Oc1cc(F)c(S(=O)(=O)Nc2cscn2)cc1Cl [PF-05089771] |  | 0.00164 |  | 0.0133 | 1.8 | 0.59 | 6 | 40 | 6 |  |  | 2.9 | 2.3 | 
CCN1CC(n2nccc2-c2cc(Cl)ccc2Oc2ccc(S(=O)(=O)Nc3cscn3)cc2C#N)C1 [PF-05150122] |  |  |  |  |  | 3.2 | 271 |  |  |  |  |  | 1.1 | 
O=S(=O)(Nc1nncs1)c1cc(Cl)c(Oc2ccc(C(F)(F)F)cc2-c2ccnnc2)cc1F [PF-05186462] |  |  | 0.8 |  |  | 1.3 |  |  | 4.1 |  |  |  | 0.8 | 
CCOc1cc(CC(=O)N[C@@H](CC(C)C)c2ccccc2N2CCCCC2)ccc1C(=O)O [REPAGLINIDE] | 0.0124 | 0.0124 | 19 |  | 10.7 | 7.4 |  | 98 | 4.4 | 0.851 | 0.679 | 6 | 2.3 | 
CCO[C@@H](Cc1ccc(OCCc2ccc(OS(C)(=O)=O)cc2)cc1)C(=O)O [TESAGLITAZAR] | 0.00273 | 0.00151 |  |  | 0.135 | 0.03 |  | 4.7 | 3.4 | 0.699 | 0.687 |  | -0.1 | 
